Measurements published in patent US5541162A, “Glutathione derivatives” (Senju Pharmaceutical Co., Ltd., priority 1990, dated 1996).

What was measured:
[1] = tested on: acetaminophen-induced liver damage; assay: Effect on acetaminophen-induced liver damage; type: in vivo, rat; details: for s-GOT, mean ± S.E. / s-GPT, mean ± S.E. / s-GOT percent inhibition (figure in parentheses) / s-GPT percent inhibition (figure in parentheses): male SD rats; for s-GOT, mean ± S.E. / s-GPT, mean ± S.E.: 0.5 mmole/kg orally 1 hour before acetaminophen 300 mg/kg i.p., serum after 24 hours; for s-GOT percent inhibition (figure in parentheses) / s-GPT percent inhibition (figure in parentheses): vs physiological saline control
Procedure: Method: Male SD rats (body weights about 180 g) purchased from Shizuoka Laboratory Animal Center were used as test animals. The test substance was orally administered (0.5 mmole/kg), and after 1 hour, acetaminophen 300 mg/kg was intraperitoneally administered. After 24 hours, the blood was drawn from the abdominal aorta of each rat and the serum was separated and determined for s-GOT and GPT.

[2] = tested on: carrageenin-induced conjunctival edema; assay: Effect on carrageenin-induced conjunctival edema; type: in vivo, rat; details: male Wistar rats; for % Inhibition (conjunctival edema): 30 mg/kg i.v., vs physiological saline control; for Conjunctival edema weight (mg ± S.E): test substance 30 mg/5 ml/kg i.v. 1 minute before subconjunctival 1% carrageenin, n=10
Procedure: Method: Male Wistar rats (body weight about 120 g) purchased from Shizuoka Laboratory Animal Center were used as test animals. Each animal was anesthesized with pentobarbital 6 mg/kg i.p. and a solution of the test substance in physiological saline was intravenously administered (30 mg/5 ml/kg). After 1 minute, 50 μl of a 1% solution of carrageenin in physiological saline was injected subconjunctivally. After 3 minutes, the rat was sacrificed and the carrageenin-induced conjunctival edema was weighed.

[3] = tested on: rat back passive anaphylactic reaction; assay: Effect on rat back passive anaphylactic reaction; type: in vivo; details: male Wistar rats; for % Inhibition (passive anaphylactic reaction): 30 mg/kg i.v., vs physiological saline control; for Absorbance (extracted Evans blue dye), mean ± S.E.: 30 mg/kg into caudal vein 1 minute before antigen, dye extracted after 30 minutes, n=5
Procedure: Method: Male Wistar rats (body weight about 130 g) purchased from Shizuoka Laboratory Animal Center were used as test animals. The back hair of each rat was clipped off and the antiserum was injected intradermally at the back. After 3 days, the test substance 30 mg/kg was injected into the caudal vein (control: physiological saline). One minute later, 1 ml of a 50:50 mixture of 1% egg white albumin and 2% Evans blue in physiological saline was intravenously administered as the antigen to induce a passive anaphylactic reaction. After 30 minutes, the rat was sacrificed, the stained area of the rat back was isolated the dye was extracted with 10 ml of formamide to determine the amount of the dye.

Molecule | Efficacy on acetaminophen-induced liver damage (in words) ([1]; 0.5 mmole/kg orally, rats) | s-GOT, mean ± S.E. [1] | s-GPT, mean ± S.E. [1] | s-GOT percent inhibition (figure in parentheses) ([1]; 0.5 mmole/kg orally) | s-GPT percent inhibition (figure in parentheses) ([1]; 0.5 mmole/kg orally) | % Inhibition (conjunctival edema) [2] | Conjunctival edema weight (mg ± S.E) [2] | % Inhibition (passive anaphylactic reaction) [3] | Absorbance (extracted Evans blue dye), mean ± S.E. [3]
CCCCOC(=O)CC(CSC[C@H](NC(=O)CC[C@H](N)C(=O)O)C(=O)NCC(=O)OC(C)C)C(=O)OCCCC (stereo partly drawn) [R1 = C3 H7, R2 = R3 = C4 H9, S-(2,3-Dicarbo-n-butoxypropyl)glutathione isopropyl ester] | significant effect | 309 ± 105 | 86 ± 31 | 88.4% | 70.9% |  |  |  | 
CC(C)OC(=O)CNC(=O)[C@H](CSC(CC(N)=O)C(N)=O)NC(=O)CC[C@H](N)C(=O)O (stereo partly drawn) [R1 = C3 H7, R2 = R3 = NH2, S-(1,2-Dicarbamoylethyl)glutathioneisopropyl ester] |  | 1760 ± 911 | 740 ± 394 | 59.8% | 46.7% | 26.2% | 58.2 ± 1.4 mg | 43.6% | 0.492 ± 0.083
CCOC(=O)CC(SC[C@H](NC(=O)CC[C@H](N)C(=O)O)C(=O)NCC(=O)OC(C)C)C(=O)OCC (stereo partly drawn) [R1 = C3 H7, R2 = R3 = OC2 H5, γ-L-Glutamyl-[S-(1,2-dicarbethoxyethyl)]-L-cystinylglycine isopropyl ester] |  | 394 ± 178 | 111 ± 51 | 91.0% | 92.0% | 23.7% | 60.2 ± 1.2 mg | 44.6% | 0.484 ± 0.093
CCCCOC(=O)CC(SC[C@H](NC(=O)CC[C@H](N)C(=O)O)C(=O)NCC(=O)OC(C)C)C(=O)OCCCC (stereo partly drawn) [R1 = C3 H7, R2 = R3 = OC4 H9, S-(1,2-Dicarbo-n-butoxyethyl)glutathione isopropyl ester] |  | 178 ± 64 | 45 ± 11 | 95.9% | 96.8% | 1.9% | 77.4 ± 4.0 mg | 43.6% | 0.492 ± 0.094
CC(C)OC(=O)CNC(=O)[C@H](CSC1CC(=O)NC1=O)NC(=O)CC[C@H](N)C(=O)O (stereo partly drawn) [R1 = C3 H7, R2 R3 = NH, S-[(1,2-Dicarboximido)ethyl]glutathione isopropyl ester] |  |  |  |  |  | 21.4% | 62.0 ± 1.6 mg | 26.5% | 0.642 ± 0.141
NC(=O)CC(SC[C@H](NC(=O)CC[C@H](N)C(=O)O)C(=O)NCC(=O)O)C(N)=O (stereo partly drawn) [R1 = H, R2 = R3 = NH2, S-(1,2-Dicarbamoylethyl)glutathione] |  | 591 ± 155 | 147 ± 48 | 78.9% | 79.1% | 5.4% | 67.1 ± 3.8 mg | 35.3% | 0.565 ± 0.162
CCN1C(=O)CC(SC[C@H](NC(=O)CC[C@H](N)C(=O)O)C(=O)NCC(=O)O)C1=O (stereo partly drawn) [R1 = H, R2 R3 = N--C2 H5, S-[N-Ethyl-2,5-dioxopyrrolidin-3-yl]glutathione] |  |  |  |  |  | 9.9% | 63.9 ± 3.6 mg | 41.1% | 0.514 ± 0.050
N[C@@H](CCC(=O)N[C@@H](CSC1CC(=O)NC1=O)C(=O)NCC(=O)O)C(=O)O (stereo partly drawn) [R1 = H, R2 R3 = NH, S-[(1,2-Dicarboximido)ethyl]glutathione] |  | 1288 ± 316 | 351 ± 82 | 54.0% | 50.1% | 9.9% | 63.9 ± 4.1 mg | 47.4% | 0.459 ± 0.104
S-(1,2-Dicarboxyethyl)glutathioneisopropyl ester [R1 = C3 H7, R2 = R3 = OH] |  | 929 ± 500 | 404 ± 278 | 78.8% | 70.9% | 19.0% | 63.9 ± 3.6 mg | 47.7% | 0.457 ± 0.055
S-[1-(or 2)Carboxy-2-(or 1)carbamoylethyl]glutathione |  |  |  |  |  | 9.6% | 64.1 ± 4.2 mg | 43.4% | 0.494 ± 0.066
